Assay results reported in patent US9713613B2, “Methods and compositions for the treatment of cancer and related hyperproliferative disorders” (priority 2007, dated 2017).

How the values were obtained:
ob/ob mice = experiment: GC-MS analyses of fatty acids in the livers of ob/ob mice; format: in vivo, mouse
Procedure: Liver samples (100 mg) obtained from fatostatin A-treated ob/ob mice and non-treated control mice and stored at −80° C. until analyzed for fatty acid contents. The fatty acids were extracted according to Folch's protocol and quantitatively analyzed using gas chromatography-mass spectrometry (GC-SM). As shown in the above table, there is about 50% reduction of C14:0 and C16:0, the products of the de novo fatty acid synthesis, and about 70% reduction of monounsaturated fatty acids C16:1, C18:1 and C20:1 and their elongation-desaturation products (C18:2)N-6, (C18:3)N-6, (C20:2)N-6, (C20-3)N-6 and (C20:5)N-3. Myristate (C14:0) and palmitate (C16:0), the products of FAS, were reduced by about 50% (P<0.05). There was no change in C18 levels, which is derived not only from de novo fatty acid synthesis by FAS, but also from food and chain elongation system. […] Also, the levels of polyunsaturated long-chain fatty acids (18:2)N-6, (18:3)N-6, (20:2)N-6, (20:3)N-6 and (20:5)N-3 were reduced 30-60%. These reductions are the result of down regulation of key enzymes in the lipogenic pathways (FAS, ACC and SCD, ACL) at transcription and translation.
Four- to 5-week old homozygous male obese (ob/ob) mice (C57BL/6J, The Jackson Laboratory, Bar Harbor, Me.) were housed under controlled conditions (12-hr light/dark cycle; 25° C.). The animals were housed 5 per cage and had ad libitum access to standard laboratory chow (Purina Mills, Richmond Ind.) and water for one week after their arrival. On first day of the experiment and every day thereafter the weight of the mice and the amount of the food consumed were measured. The weight of mice and food remaining were measured daily between 3-5 p.m. before the ip injection of fatostatin A (30 mg/kg; 150 μL). The administration of Fatostatin A or 10% DMSO in PBS to control groups (n=5) continued daily for four weeks till the end of the study.

SUM159 cells = experiment: SUM159 cell growth, WST-1 assay, and lipogenic gene expression; format: cell-based, human
Procedure: Cells were seeded onto 96 well plates at a density of 10000 cells/well in 100 ul medium containing 2% charcoal stripped serum. After 24 hours, compound 19 was added to the cells at the indicated concentrations for another 48 hours. Cell viability was determined using WST-1 assay.
Cells seeded onto 96 well plates at a density of 5000 cells/well in 100 μl medium containing 2% charcoal treated serum. After 24 hours different concentrations of compound 19 were added for an additional 48 hours. Cell viability was measured using WST-1 Cell Viability and Proliferation Assay (ScienCell Research Laboratory, Carlsbad Calif.). Changes in expression levels of lipogenic genes mRNA was determined in cells that were treated with 10 μM. […] Insig2 gene which is not known to be regulated by these transcription factors was not affected by the treatment (FIG. 33B).

CCCc1cc(-c2nc(-c3ccc(C)cc3)cs2)ccn1 [Compound 1, 2-propyl-4-(4-p-tolylthiazol-2-yl)pyridine]
Fatty Acid (14:0) Ratio treated:control (ob/ob mice; ob/ob mice liver): 0.5148 | Fatty Acid (16:0) Ratio treated:control (ob/ob mice; ob/ob mice liver): 0.4367 | Fatty Acid (16:1) Ratio treated:control (ob/ob mice; ob/ob mice liver): 0.3285 | Fatty Acid (18:0) Ratio treated:control (ob/ob mice; ob/ob mice liver): 1.066 | Fatty Acid (18:1) Ratio treated:control (ob/ob mice; ob/ob mice liver): 0.2922 | Fatty Acid (18:2)N-6 Ratio treated:control (ob/ob mice; ob/ob mice liver): 0.638 | Fatty Acid (18:3)N-3 Ratio treated:control (ob/ob mice; ob/ob mice liver): 1.218 | Fatty Acid (18:3)N-6 Ratio treated:control (ob/ob mice; ob/ob mice liver): 0.4232 | Fatty Acid (20:0) Ratio treated:control (ob/ob mice; ob/ob mice liver): 0.8517 | Fatty Acid (20:1) Ratio treated:control (ob/ob mice; ob/ob mice liver): 0.3245 | Fatty Acid (20:2)N-6 Ratio treated:control (ob/ob mice; ob/ob mice liver): 0.4668 | Fatty Acid (20:3)N-6 Ratio treated:control (ob/ob mice; ob/ob mice liver): 0.6297 | Fatty Acid (20:4)N-6 Ratio treated:control (ob/ob mice; ob/ob mice liver): 1.125 | Fatty Acid (20:5)N-3 Ratio treated:control (ob/ob mice; ob/ob mice liver): 0.6994 | Fatty Acid (22:0) Ratio treated:control (ob/ob mice; ob/ob mice liver): 1.266 | Fatty Acid (22:1) Ratio treated:control (ob/ob mice; ob/ob mice liver): 0.871 | Fatty Acid (22:4)N-6 Ratio treated:control (ob/ob mice; ob/ob mice liver): 0.959 | Fatty Acid (22:5)N-3 Ratio treated:control (ob/ob mice; ob/ob mice liver): 0.7357 | Fatty Acid (22:5)N-6 Ratio treated:control (ob/ob mice; ob/ob mice liver): 1.18 | Fatty Acid (22:6)N-3 Ratio treated:control (ob/ob mice; ob/ob mice liver): 1.058 | Fatty Acid (24:0) Ratio treated:control (ob/ob mice; ob/ob mice liver): 1.308 | Fatty Acid (24:1) Ratio treated:control (ob/ob mice; ob/ob mice liver): 1.699 | Fatty Acid (16:0) in liver (ob/ob mice; treated ob/ob mice): 37100 ± 3660 nmol/g liver | Fatty Acid (16:1) in liver (ob/ob mice; treated ob/ob mice): 11400 ± 228 nmol/g liver | Fatty Acid (18:0) in liver (ob/ob mice; treated ob/ob mice): 15100 ± 916 nmol/g liver | Fatty Acid (18:1) in liver (ob/ob mice; treated ob/ob mice): 44500 ± 8840 nmol/g liver | Fatty Acid (18:2)N-6 in liver (ob/ob mice; treated ob/ob mice): 29700 ± 2460 nmol/g liver | Fatty Acid (20:0) in liver (ob/ob mice; treated ob/ob mice): 164 ± 22.9 nmol/g liver | Fatty Acid (22:0) in liver (ob/ob mice; treated ob/ob mice): 116 ± 26 nmol/g liver | Fatty Acid (24:0) in liver (ob/ob mice; treated ob/ob mice): 158 ± 7.02 nmol/g liver | increase in C24:0 in livers (ob/ob mice; vs untreated control mice): 30% | lowering of C20:0 in livers (ob/ob mice; vs untreated control mice): about 15% | reduction of (18:2)N-6, (18:3)N-6, (20:2)N-6, (20:3)N-6 and (20:5)N-3 in livers (ob/ob mice; vs untreated control mice): 30-60% | reduction of (C18:2)N-6, (C18:3)N-6, (C20:2)N-6, and (C20-3)N-6 in livers (ob/ob mice; vs untreated control mice): about 50% | reduction of C14:0 and C16:0 in livers (ob/ob mice; vs untreated control mice): about 50% | reduction of monounsaturated fatty acids C16:1, C18:1 and C20:1 in livers (ob/ob mice; vs untreated control mice): about 70%

CCCc1cc(-c2nc(-c3ccc(NS(C)(=O)=O)cc3)cs2)ccn1 [Compound 19, N-(4-(2-(2-propylpyridin-4-yl)thiazol-4-yl)phenyl)methanesulfonamide]
expression levels of lipogenic genes mRNA under the control of SREBPs (SUM159 cells; 10 μM, Insig2 not affected): significant downregulation | cell growth / viability (SUM159 cells; different concentrations, 48 hours, 2% charcoal treated serum): inhibition of cell growth and a toxic effect
